Source: publication PMC7194013 (Nature plants, 2020)

Experiments:
Assay in all cases: in vitro enzyme assay with purified recombinant CPS and GGPP, GC-FID
Format in all cases: biochemical
ZmCPS2 (An2) = biological target: T1, ZmCPS2 (An2) (Zea mays, UniProt A0A1D6K6U5)
T1 sequence (A0A1D6K6U5 71-825): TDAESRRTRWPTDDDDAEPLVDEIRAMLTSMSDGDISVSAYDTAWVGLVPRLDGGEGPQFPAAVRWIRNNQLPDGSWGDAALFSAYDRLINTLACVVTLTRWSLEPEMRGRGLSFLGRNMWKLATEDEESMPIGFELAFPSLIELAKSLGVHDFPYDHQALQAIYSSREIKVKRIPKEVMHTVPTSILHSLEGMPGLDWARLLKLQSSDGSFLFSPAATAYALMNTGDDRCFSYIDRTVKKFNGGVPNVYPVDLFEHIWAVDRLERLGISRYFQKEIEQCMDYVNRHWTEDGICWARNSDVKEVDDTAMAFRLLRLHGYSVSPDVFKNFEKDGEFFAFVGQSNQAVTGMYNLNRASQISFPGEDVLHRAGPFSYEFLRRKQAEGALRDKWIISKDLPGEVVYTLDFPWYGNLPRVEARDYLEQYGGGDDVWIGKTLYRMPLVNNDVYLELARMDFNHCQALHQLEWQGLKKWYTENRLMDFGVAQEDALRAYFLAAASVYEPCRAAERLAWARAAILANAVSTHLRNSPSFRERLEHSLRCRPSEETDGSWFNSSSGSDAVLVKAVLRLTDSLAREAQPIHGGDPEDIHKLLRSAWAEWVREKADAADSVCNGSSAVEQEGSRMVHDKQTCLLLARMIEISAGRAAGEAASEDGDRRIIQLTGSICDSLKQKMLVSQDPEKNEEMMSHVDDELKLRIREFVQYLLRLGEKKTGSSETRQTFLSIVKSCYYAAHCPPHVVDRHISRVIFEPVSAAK

ZmCPS1 (An1) = biological target: T2, ZmCPS1 (An1) (Zea mays, UniProt Q41771)
T2 sequence (Q41771 64-824): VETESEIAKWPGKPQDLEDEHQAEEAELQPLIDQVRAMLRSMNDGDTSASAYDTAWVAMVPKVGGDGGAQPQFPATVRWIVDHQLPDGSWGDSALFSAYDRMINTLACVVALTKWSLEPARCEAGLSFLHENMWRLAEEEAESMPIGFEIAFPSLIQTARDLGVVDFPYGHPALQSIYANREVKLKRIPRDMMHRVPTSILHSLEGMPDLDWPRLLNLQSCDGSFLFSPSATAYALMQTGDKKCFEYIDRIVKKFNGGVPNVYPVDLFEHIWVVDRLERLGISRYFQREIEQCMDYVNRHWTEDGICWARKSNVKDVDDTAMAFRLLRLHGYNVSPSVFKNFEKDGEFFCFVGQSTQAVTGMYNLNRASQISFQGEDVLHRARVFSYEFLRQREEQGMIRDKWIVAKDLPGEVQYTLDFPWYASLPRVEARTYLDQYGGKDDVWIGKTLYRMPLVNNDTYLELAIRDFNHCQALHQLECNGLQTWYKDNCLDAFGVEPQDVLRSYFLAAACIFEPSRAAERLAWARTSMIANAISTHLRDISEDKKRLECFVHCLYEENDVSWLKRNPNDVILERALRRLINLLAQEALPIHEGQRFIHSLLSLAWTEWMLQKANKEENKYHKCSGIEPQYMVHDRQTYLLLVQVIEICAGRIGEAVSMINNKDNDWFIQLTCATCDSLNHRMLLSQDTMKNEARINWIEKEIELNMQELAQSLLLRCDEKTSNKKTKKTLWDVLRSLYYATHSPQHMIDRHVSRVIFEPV

[1] = biological target: T3, AtCPS (ent-copalyl diphosphate synthase, GA1) (Arabidopsis thaliana, UniProt Q38802)
T3 sequence (Q38802 85-802): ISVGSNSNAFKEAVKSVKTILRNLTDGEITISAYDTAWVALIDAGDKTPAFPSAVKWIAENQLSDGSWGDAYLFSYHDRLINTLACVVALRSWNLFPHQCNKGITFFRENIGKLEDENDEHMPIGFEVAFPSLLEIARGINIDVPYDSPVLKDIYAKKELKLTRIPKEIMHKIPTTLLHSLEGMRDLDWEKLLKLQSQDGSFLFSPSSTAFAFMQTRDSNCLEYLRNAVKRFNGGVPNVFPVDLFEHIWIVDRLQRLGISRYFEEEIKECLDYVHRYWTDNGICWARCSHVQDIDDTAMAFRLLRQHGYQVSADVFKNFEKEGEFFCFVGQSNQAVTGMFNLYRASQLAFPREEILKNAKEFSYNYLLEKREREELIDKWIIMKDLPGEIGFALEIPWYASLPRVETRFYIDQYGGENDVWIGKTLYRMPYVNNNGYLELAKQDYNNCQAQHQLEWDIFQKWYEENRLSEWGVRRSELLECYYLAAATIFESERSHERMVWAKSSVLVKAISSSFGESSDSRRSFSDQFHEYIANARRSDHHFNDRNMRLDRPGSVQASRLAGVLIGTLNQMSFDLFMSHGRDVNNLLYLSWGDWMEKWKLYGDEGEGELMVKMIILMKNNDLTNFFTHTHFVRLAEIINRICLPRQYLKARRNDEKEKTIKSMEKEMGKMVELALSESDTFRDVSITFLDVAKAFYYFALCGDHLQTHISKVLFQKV

`C[N+]1(C)CCCCC1` [DPC, 1,1-dimethyl-piperidinium chloride] was tested, and the IC50 (ZmCPS2 (An2)) was 4000 µM, the IC50 (ZmCPS1 (An1)) was 2000 µM and the IC50 [1] was 30 µM.
